Activity calls are given as the source filed them. No rule for the calls is given here.

The nature of the assay: compounds inducing NF-kB luciferase expression – cell-based, SH-SY5Y, dose response (AID 1241). The settings on record: SH-SY5Y NF-kB promoter luciferase reporter, fold induction. Background: A reporter such as luciferase makes a cellular process visible.
The EC50 is the concentration needed to bring the measured effect to its halfway point. Regarding `CCCCCCCOc1ccc(OC(=O)c2ccncc2)cc1`, the concentration for a half-maximal effect (EC50) was 0.107 µM. With `Cc1ccnc(NC(=O)CCCOc2cc(=O)n(C)c3ccccc23)c1`, the half-maximal effective concentration (EC50) is 10.5 µM.

Turning to `Cc1ccsc1C(=O)Nc1ccc2c(c1)OCCO2`, the half-maximal effective concentration (EC50) was 3.08 µM. In the case of `Cc1ccc(/C=C2\OC(=O)c3ccccc32)cc1` it was 6.03 µM; in that of `Clc1ccccc1-c1nnc(-c2ccc3c(c2)OCO3)o1`, 1.41 µM; in that of `CCN(CC)c1ccc(N=Nc2nn(C)c(C)c2[N+](=O)[O-])cc1`, 8.19 µM.

As to `O=C(O)c1cccc(COc2ccccc2Cl)c1`, the EC50 is 1.35 µM. For the molecule `CCOC(=O)/C(=C\c1ccccc1)C(=O)c1cc(C(C)=O)c(Nc2ccccc2)s1`, the EC50 is 17.4 µM. To `COc1ccc2[nH]c3c(c2c1)CCn1c-3nc2ccccc2c1=O` belongs 0.185 µM; to `Clc1cccc(-c2nnc(-c3ccccc3)o2)c1`, 1.67 µM.

Consider `Cc1occc1C(=O)N/N=C/C(Br)=C/c1ccccc1`, for which the concentration giving a half-maximal response (EC50) was 1.64 µM. To `CC(C)(C)C(=O)Nc1nc(-c2ccccc2)ns1` belongs 2.73 µM; to `Cc1ccc(N/C=C/C(=O)c2cccs2)cc1C`, 0.27 µM; to `CCOC(=O)c1sc(NC(=O)Nc2ccccc2)cc1C`, 0.753 µM. As to `COC(=O)c1ccc(-c2nc3ccc(C)cc3o2)cc1`, the half-maximal effective concentration (EC50) is 3.3 µM.

On to `CCc1ccc(-c2cc(N)n(-c3ccccc3)n2)cc1`, for which the EC50 is 16.4 µM.

On to `O=C(CSC(=S)N1CCSCC1)c1ccccc1`, for which the EC50 is 3.44 µM. `Cc1cc2nc(-c3ccc(SCC(=O)Nc4ccc(S(=O)(=O)NC5CC5)cc4)nc3)[nH]c2cc1C`: the concentration giving a half-maximal response (EC50) is 0.907 µM. For `C=CCN=c1scc(-c2ccccc2)n1/N=C/c1ccccn1`, the 50% effective concentration (EC50) was 1.46 µM. For `Cc1cccc(-n2ncc3c(NC4CCCCC4)ncnc32)c1`, the EC50 was 2.33 µM.

`Nc1ccc(Nc2nc(-c3cc4ccccc4oc3=O)cs2)cc1`: the EC50 was 2.02 µM. In the case of `Cc1ccc(NC(=O)c2ccc3ccccc3n2)nc1`, the EC50 was 4.11 µM. Take `Cc1nn(-c2ccccc2Cl)c(Cl)c1/C=N/Nc1cccc(C(=O)O)c1`: the 50% effective concentration (EC50) is 4.37 µM.

On to `CC(=O)Oc1ccc(Oc2ccc(-c3noc(C)n3)cc2)cc1`, for which the concentration for a half-maximal effect (EC50) is 2.84 µM.

Regarding `COc1ccc2nc(-c3ccccc3)[nH]c2c1`, the EC50 was 1.32 µM. Take `CCOC(=O)CSc1nc(-c2ccncc2)ccc1C#N`: the 50% effective concentration (EC50) is 6.77 µM. As to `Cc1cc(C)cc(NC(=O)c2ccc([N+](=O)[O-])o2)c1`, the half-maximal effective concentration (EC50) was 4.24 µM.

In the case of `CC(C)N=c1scc(-c2ccco2)n1/N=C/c1ccc(O)c(O)c1`, the concentration giving a half-maximal response (EC50) is 6.5 µM. `C=CCSc1nnc(-c2ccc(Cl)cc2Cl)o1`: the EC50 is 4.37 µM. In the case of `N/C(=N\N=C\c1cccc(O)c1)c1nonc1N` it was 3.31 µM; in that of `COc1ccc(-c2cn3cccc(C)c3n2)cc1F`, 22.4 µM; in that of `CC(C)c1oc(=O)cc2c1[C@@H](O)[C@H]1OC(=O)[C@@]3(C)C[C@@H](O)[C@@H](O)[C@@]2(C)C13` (stereo partly drawn), 4.45 µM. In the case of `Cc1ccc2nc(-c3ccc(NC(=O)COC(=O)c4ccc([N+](=O)[O-])o4)cc3)sc2c1`, the concentration giving a half-maximal response (EC50) is 0.437 µM. In the case of `CC(C)c1ccc(/C=N/NC(=O)c2cccc(Cl)c2)cc1` it was 28.8 µM; in that of `CCCCOc1ccc(-c2csc(N)n2)cc1[N+](=O)[O-]`, 14.1 µM. Take `Cc1ccc(-c2cn3cccc(C)c3n2)cc1`: the EC50 is 2.3 µM. On to `c1ccc(N2CCN(c3cnc4ccccc4n3)CC2)cc1`, for which the EC50 is 1.61 µM. Turning to `Cc1ccccc1-c1noc(-c2ccc(O)cc2)n1`, the concentration for a half-maximal effect (EC50) is 6.21 µM. To `COc1ccc(CN=C2Nc3ccccc3CS2)cc1` belongs 13.3 µM. In the case of `Fc1ccc(-c2nc3n(n2)Cc2ccccc2-3)cc1` it was 0.125 µM; in that of `O=C(Nc1ccc2c(c1)OCCO2)NC1CCCCC1`, 18.2 µM; in that of `Cc1ccc(-n2cc3ccc([N+](=O)[O-])cc3n2)cc1`, 1.29 µM.

As for `CC(=O)Nc1ccc(-c2csc(Nc3cccc(C)n3)n2)cc1`, the EC50 is 1 µM. As for `COc1ccc(/C=N/Nc2ncccc2[N+](=O)[O-])c(OC)c1`, the concentration for a half-maximal effect (EC50) is 3.35 µM. To `COc1ccc(/C=C/c2nc(-c3ccccc3O)n[nH]2)cc1` belongs 2.93 µM; to `COc1ccccc1Nc1nc(-c2cccs2)cs1`, 3.68 µM; to `Cc1ccc(-c2nc3ccccc3[nH]2)cc1N`, 3.41 µM. On to `COc1cccc(NC(=O)C(=S)NC2CCCCC2)c1`, for which the concentration giving a half-maximal response (EC50) is 4.22 µM.

As for `Fc1ccc(-c2cnn3c(-c4cccs4)ccnc23)cc1`, the EC50 is 0.532 µM. With `O=C(CC(Nc1ccc(F)cc1)C(=O)O)c1ccccc1` (stereo not drawn), the concentration for a half-maximal effect (EC50) is 1.5 µM. On to `COc1ccc2c(c1)CC/C2=N\OC(=O)c1cccc(C)c1`, for which the EC50 is 2.06 µM. As for `COc1cc(/C=N/O)ccc1OCc1ccc(Cl)cc1`, the EC50 was 0.882 µM. For `COc1cccc(-c2noc(-c3cccs3)n2)c1`, the EC50 is 2.18 µM.

For the molecule `O=C(/C=C/c1ccccc1Cl)c1ccccc(=O)c1O`, the EC50 is 8.07 µM. On to `Clc1ccccc1Nc1nc(-c2cccnc2)cs1`, for which the EC50 was 1.86 µM. On to `Cc1ccc(C(=O)Nc2ccc3nccnc3c2)cc1`, for which the EC50 was 1.11 µM. As to `c1ccc(Cn2ccc(-c3cnc(-c4ccccc4)s3)n2)cc1`, the EC50 is 2.24 µM. Take `Cc1ccnc(NC(=O)/C=C/c2ccccc2Cl)c1`: the half-maximal effective concentration (EC50) is 10.4 µM. For the molecule `O=C(/C=C\Nc1ccccc1Br)c1ccc2c(c1)OCO2`, the concentration for a half-maximal effect (EC50) was 0.096 µM. As for `CC(=O)c1ccc(NC(=O)/C(Cl)=C/c2ccccc2)cc1`, the EC50 is 4.31 µM.

Turning to `O=C(CCCc1ccccc1)Nc1ccc2c(c1)OCCO2`, the concentration for a half-maximal effect (EC50) was 1.5 µM.

On to `O=C(/C=C/Nc1ccc(Oc2ccccc2)cc1)c1ccco1`, for which the EC50 was 1.21 µM. Take `CC(C)c1cc(C(=O)Nc2ccc3c(c2)OCO3)no1`: the EC50 was 3.28 µM. Consider `COc1ccc2c(c1)OC/C(=C/c1cccs1)C2=O`, for which the EC50 was 5.52 µM.

Consider `Cn1cc([N+](=O)[O-])c(C(=O)Nc2ccc(-c3nc4ccccc4[nH]3)cc2)n1`, for which the half-maximal effective concentration (EC50) was 1.41 µM.

With `O=C(c1ccc(Cl)cc1)c1coc2ccc(O)cc12`, the half-maximal effective concentration (EC50) was 3.21 µM.

On to `Cc1ccc(-c2nnc(-c3cccs3)o2)cc1`, for which the EC50 was 2.79 µM. On to `COc1ccc(Nc2nc3ccccc3s2)cc1`, for which the EC50 was 20.4 µM.

Turning to `CCOc1ccc2nc(N3CCCCCC3)sc2c1`, the concentration for a half-maximal effect (EC50) was 3.69 µM. As for `O=C(Nc1ccccc1)c1cc2ccccc2o1`, the EC50 is 1.24 µM. For `Cc1ccc(Nc2nc3ccccc3s2)c(C)c1`, the half-maximal effective concentration (EC50) was 0.874 µM. In the case of `Cc1cccc(/C=C/c2nc3ccccc3c(=O)[nH]2)c1`, the EC50 was 0.829 µM. Regarding `Cc1ccc(N2Cc3ccccc3C2=S)cc1`, the 50% effective concentration (EC50) was 5.15 µM. With `O=C(CCc1ccccc1)Nc1ccc2ccccc2n1`, the 50% effective concentration (EC50) was 16.2 µM. For the molecule `N/C(=N\OC(=O)c1cccc(Cl)c1)c1ccccn1`, the 50% effective concentration (EC50) is 1.95 µM. In the case of `COCCOCCn1c(/C=C/c2ccccc2)nc2ccccc21` it was 5.78 µM; in that of `O=C(Nc1ccc2c(c1)CCC2)c1ccccc1F`, 1.8 µM.

For the molecule `O=C(NCCC1=CCCCC1)Nc1ccc2nsnc2c1`, the EC50 was 4.77 µM.

Turning to `CCCCOC(=O)Nc1ccc(N2CCCCC2)cc1`, the half-maximal effective concentration (EC50) was 20.5 µM. `Cn1c(C(=O)Nc2ccc3c(c2)OCO3)cc2sccc21`: the EC50 was 5.24 µM.

For the molecule `COc1ccc(N/C=C\C(=O)c2ccc3c(c2)OCO3)cc1`, the concentration giving a half-maximal response (EC50) is 1.63 µM. Take `COc1ccc(-c2csc(NCc3ccco3)n2)cc1`: the EC50 is 3.7 µM. On to `O=C(Nc1nc2ccccc2[nH]1)c1cc2ccccc2o1`, for which the half-maximal effective concentration (EC50) is 1.23 µM. For `Oc1ccc(/C=N/Nc2cccc3cccnc23)c(O)c1`, the EC50 was 2.95 µM. On to `COc1ccc(C2CC(c3c(O)cc(C)oc3=O)=NCCS2)c(OC)c1` (stereo not drawn), for which the EC50 is 2.33 µM.

Regarding `Cc1ccc(-c2nc(-c3cccnc3)no2)cc1`, the EC50 was 1.32 µM. On to `Cn1ccc(C(=O)Nc2ccc(Br)cc2Br)n1`, for which the EC50 was 29.5 µM.

As for `CCOc1ccc2nc(NC(=S)N(C)C)sc2c1`, the concentration for a half-maximal effect (EC50) is 17.3 µM. For the molecule `Cc1ccc2nc(-c3ccc(NC(=O)CNC4CC4)cc3)sc2c1`, the EC50 is 1.69 µM. Take `O=C(Nc1nc2ccccc2s1)c1ccc(F)cc1`: the half-maximal effective concentration (EC50) was 1.2 µM.

In the case of `Cc1nc(Nc2ccccc2)sc1-c1ccccc1`, the EC50 is 1.45 µM.

For the molecule `CCc1ccc(NC(=O)c2cc(C)on2)cc1`, the EC50 was 2.86 µM. Regarding `Clc1cccc(Cl)c1/C=C/c1nc2ccccc2[nH]1`, the concentration giving a half-maximal response (EC50) is 1.19 µM. As to `COc1ccc2c(c1OC)C(=O)OC2Nc1nc(-c2ccc(-c3ccccc3)cc2)cs1` (stereo not drawn), the half-maximal effective concentration (EC50) is 2.98 µM. `S=C(c1ccc(-c2ccc(Cl)c(Cl)c2)o1)N1CCOCC1`: the EC50 was 5.19 µM. In the case of `O=C(/C=C/Nc1ccccc1F)c1ccc(Br)cc1` it was 0.595 µM; in that of `COc1ccc2nc(Nc3ccccc3OC)sc2c1`, 2.24 µM; in that of `CN(C)c1ccc(C(=O)c2ccc(N(C)C)c3ccccc23)cc1`, 0.221 µM. As for `Cc1ccc(C(=O)Nc2ccc3c(c2)CCC3)o1`, the EC50 was 31 µM (inactive). On to `CCc1ccc(NC(=O)c2cnn(-c3ccccc3)c2C)cc1`, for which the EC50 is 2.56 µM. In the case of `Clc1ccc(CSc2nc3ccncc3[nH]2)cc1` it was 6.94 µM; in that of `O=C(C=C1SCCS1)/C=C/c1ccco1`, 0.781 µM; in that of `O=C(Nc1ccc2sc3ccccc3c(=O)c2c1)c1ccccc1Cl`, 7.04 µM. Take `CC(C)c1ccc(Nc2nc(CC(=O)O)cs2)cc1`: the EC50 is 5.81 µM. As for `O=[N+]([O-])c1ccc(C2Oc3ccccc3C3CC(c4ccccc4)=NN32)s1` (stereo not drawn), the EC50 was 12.2 µM.

As to `CC(=Nc1cccc(O)c1)c1sc2ccccc2c1O`, the half-maximal effective concentration (EC50) is 2.2 µM. In the case of `C(=N\Nc1nc(-c2ccccc2)cs1)/c1cccs1` it was 5.97 µM.

As to `CCC(=O)NC(=Nc1nc2ccccc2s1)NC(=O)CC`, the EC50 is 4.45 µM. For `C/C(=N\N1C(=O)c2ccccc2NC1c1ccco1)c1ccccc1O` (stereo not drawn), the EC50 is 2.5 µM. For the molecule `Nc1ccc(O)cc1C(=O)OCC(=O)c1ccc(C2CCCCC2)cc1`, the EC50 is 3.91 µM. On to `Cc1csc(NC(=O)c2ccc(C)c([N+](=O)[O-])c2)n1`, for which the half-maximal effective concentration (EC50) is 2.12 µM. As to `Cc1ccc(N/C=C(/C#N)c2ccsc2)cc1C`, the 50% effective concentration (EC50) was 6.87 µM. Consider `Nc1nn(-c2cccc(F)n2)cc1-c1ccccc1`, for which the 50% effective concentration (EC50) was 26 µM.

For the origin of these results see PubChem BioAssay AID1241 (SRMLSC, 2008).
